Earlier results, collected in US20140371418A1, “BIOLOGICAL SYNTHESIS OF P-AMINOBENZOIC ACID, P-AMINOPHENOL, N-(4-HYDROXYPHENYL)ETHANAMIDE AND DERIVATIVES THEREOF” (pAromatics, LLC, priority 2012, published 2014).

solubility of PABA in water: 0.072 M and about 10 g/L
SMILES: Nc1ccc(C(=O)O)cc1 [PABA, p-aminobenzoic acid]
inhibition of growth of bacteria and fungi (bacteria and fungi): inhibits growth
